Experimental data: US20230398130A1, “METHODS AND COMPOSITIONS FOR DIFFERENTIATING STEM CELLS” (Massachusetts Institute of Technology, priority 2020, published 2023)

Assays:
ISC-enriched organoids [1] = experiment: Primary screen, 384-well 2.5-D organoid differentiation (ENR+CD, 6 days): basal lysozyme secretion (LYZ.NS); format: cell-based, murine; conditions: for Dose.FC.LYZ.NS / SSMD.LYZ.NS: primary screen; for Dose.FC.LYZ.NS: FC vs plate median; for Z.LYZ.NS: standard z score of FC; for SSMD.LYZ.NS: strictly standardized mean difference
Description: (§1) High-throughput screening.

ISC-enriched organoids [2] = experiment: Primary screen, 384-well 2.5-D organoid differentiation (ENR+CD, 6 days): carbachol-induced lysozyme secretion (LYZ.S); format: cell-based, murine; conditions: primary screen; for Dose.FC.LYZ.S: FC vs plate median; for Z.LYZ.S: standard z score; for SSMD.LYZ.S: strictly standardized mean difference
Description: as §1

ISC-enriched organoids [3] = experiment: Primary screen, 384-well 2.5-D organoid differentiation (ENR+CD, 6 days, Target Selective Inhibitor Library, vs whole-plate median): ATP (CellTiter-Glo 3D, CTG); conditions: for Dose.FC.CTG / SSMD.CTG: primary screen; for Dose.FC.CTG: FC vs plate median; for Z.CTG: standard z score of FC; for SSMD.CTG: strictly standardized mean difference
[4] = 1st of the 4 dose lines of the treatment (dose not given)
[5] = 2nd of the 4 dose lines of the treatment (dose not given)
[6] = 3rd of the 4 dose lines of the treatment (dose not given)
[7] = 4th of the 4 dose lines of the treatment (dose not given)

Compound	SSMD.LYZ.NS (ISC-enriched organoids [1]; [4])	SSMD.LYZ.NS (ISC-enriched organoids [1]; [5])	SSMD.LYZ.NS (ISC-enriched organoids [1]; [6])	SSMD.LYZ.NS (ISC-enriched organoids [1]; [7])	Z.LYZ.S (ISC-enriched organoids [2]; [4])	Z.LYZ.S (ISC-enriched organoids [2]; [5])	Z.LYZ.S (ISC-enriched organoids [2]; [6])	Z.LYZ.S (ISC-enriched organoids [2]; [7])	SSMD.LYZ.S (ISC-enriched organoids [2]; [4])	SSMD.LYZ.S (ISC-enriched organoids [2]; [5])	SSMD.LYZ.S (ISC-enriched organoids [2]; [6])	SSMD.LYZ.S (ISC-enriched organoids [2]; [7])	Z.CTG (ISC-enriched organoids [3]; Dose 0.08 uM)	Z.CTG (ISC-enriched organoids [3]; Dose 0.40 uM)	Z.CTG (ISC-enriched organoids [3]; Dose 2.00 uM)	Z.CTG (ISC-enriched organoids [3]; Dose 10.00 uM)	SSMD.CTG (ISC-enriched organoids [3]; [4])	SSMD.CTG (ISC-enriched organoids [3]; [5])	SSMD.CTG (ISC-enriched organoids [3]; [6])	SSMD.CTG (ISC-enriched organoids [3]; [7])	further results
COc1ccc(CNCc2cccc3ccccc23)cc1.Cl [ML133 HCl]	0.282	−0.131	0.740	−0.152	0.404	−0.118	0.565	−0.089	0.324	−0.129	0.368	−0.088	−0.023	−0.360	−0.591	−0.096	−0.026	−0.437	−0.560	−0.133	Dose.FC.LYZ.NS (ISC-enriched organoids [1]; Dose 0.08 uM): 0.030 log 2 fold change; Z.LYZ.NS (ISC-enriched organoids [1]; Dose 0.08 uM): 0.261; Dose.FC.LYZ.NS (ISC-enriched organoids [1]; Dose 0.40 uM): −0.013 log 2 fold change; Z.LYZ.NS (ISC-enriched organoids [1]; Dose 0.40 uM): −0.116; Dose.FC.LYZ.NS (ISC-enriched organoids [1]; Dose 2.00 uM): 0.073 log 2 fold change; Z.LYZ.NS (ISC-enriched organoids [1]; Dose 2.00 uM): 0.633; Dose.FC.LYZ.NS (ISC-enriched organoids [1]; Dose 10.00 uM): −0.018 log 2 fold change; Z.LYZ.NS (ISC-enriched organoids [1]; Dose 10.00 uM): −0.155; Dose.FC.LYZ.S (ISC-enriched organoids [2]; Dose 0.08 uM): 0.062 log 2 fold change; Dose.FC.LYZ.S (ISC-enriched organoids [2]; Dose 0.40 uM): −0.018 log 2 fold change; Dose.FC.LYZ.S (ISC-enriched organoids [2]; Dose 2.00 uM): 0.087 log 2 fold change; Dose.FC.LYZ.S (ISC-enriched organoids [2]; Dose 10.00 uM): −0.014 log 2 fold change; Dose.FC.CTG (ISC-enriched organoids [3]; Dose 0.08 uM): −0.009 log 2 fold change; Dose.FC.CTG (ISC-enriched organoids [3]; Dose 0.40 uM): −0.151 log 2 fold change; Dose.FC.CTG (ISC-enriched organoids [3]; Dose 2.00 uM): −0.247 log 2 fold change; Dose.FC.CTG (ISC-enriched organoids [3]; Dose 10.00 uM): −0.040 log 2 fold change
CCCC(=O)Nc1cccc(NC(=O)c2ccccc2Br)c1 [ML161]	0.117	−0.239	0.354	−0.421	0.113	−0.173	0.158	−0.429	0.096	−0.148	0.152	−0.282	0.205	0.067	0.157	−0.084	0.278	0.087	0.229	−0.107	Dose.FC.LYZ.NS (ISC-enriched organoids [1]; Dose 0.08 uM): 0.018 log 2 fold change; Z.LYZ.NS (ISC-enriched organoids [1]; Dose 0.08 uM): 0.158; Dose.FC.LYZ.NS (ISC-enriched organoids [1]; Dose 0.40 uM): −0.027 log 2 fold change; Z.LYZ.NS (ISC-enriched organoids [1]; Dose 0.40 uM): −0.237; Dose.FC.LYZ.NS (ISC-enriched organoids [1]; Dose 2.00 uM): 0.037 log 2 fold change; Z.LYZ.NS (ISC-enriched organoids [1]; Dose 2.00 uM): 0.323; Dose.FC.LYZ.NS (ISC-enriched organoids [1]; Dose 10.00 uM): −0.057 log 2 fold change; Z.LYZ.NS (ISC-enriched organoids [1]; Dose 10.00 uM): −0.494; Dose.FC.LYZ.S (ISC-enriched organoids [2]; Dose 0.08 uM): 0.017 log 2 fold change; Dose.FC.LYZ.S (ISC-enriched organoids [2]; Dose 0.40 uM): −0.027 log 2 fold change; Dose.FC.LYZ.S (ISC-enriched organoids [2]; Dose 2.00 uM): 0.024 log 2 fold change; Dose.FC.LYZ.S (ISC-enriched organoids [2]; Dose 10.00 uM): −0.066 log 2 fold change; Dose.FC.CTG (ISC-enriched organoids [3]; Dose 0.08 uM): 0.086 log 2 fold change; Dose.FC.CTG (ISC-enriched organoids [3]; Dose 0.40 uM): 0.028 log 2 fold change; Dose.FC.CTG (ISC-enriched organoids [3]; Dose 2.00 uM): 0.066 log 2 fold change; Dose.FC.CTG (ISC-enriched organoids [3]; Dose 10.00 uM): −0.035 log 2 fold change
COc1ccc(-c2cnc3c(-c4cccc5ncccc45)cnn3c2)cc1 [ML347]	1.159	1.286	0.509	−0.643	0.608	0.715	0.467	−1.303	0.546	0.729	0.450	−1.245	0.439	0.500	0.328	−0.404	0.464	0.557	0.403	−0.307	Dose.FC.LYZ.NS (ISC-enriched organoids [1]; Dose 0.08 uM): 0.124 log 2 fold change; Z.LYZ.NS (ISC-enriched organoids [1]; Dose 0.08 uM): 1.079; Dose.FC.LYZ.NS (ISC-enriched organoids [1]; Dose 0.40 uM): 0.132 log 2 fold change; Z.LYZ.NS (ISC-enriched organoids [1]; Dose 0.40 uM): 1.150; Dose.FC.LYZ.NS (ISC-enriched organoids [1]; Dose 2.00 uM): 0.069 log 2 fold change; Z.LYZ.NS (ISC-enriched organoids [1]; Dose 2.00 uM): 0.600; Dose.FC.LYZ.NS (ISC-enriched organoids [1]; Dose 10.00 uM): −0.124 log 2 fold change; Z.LYZ.NS (ISC-enriched organoids [1]; Dose 10.00 uM): −1.078; Dose.FC.LYZ.S (ISC-enriched organoids [2]; Dose 0.08 uM): 0.094 log 2 fold change; Dose.FC.LYZ.S (ISC-enriched organoids [2]; Dose 0.40 uM): 0.111 log 2 fold change; Dose.FC.LYZ.S (ISC-enriched organoids [2]; Dose 2.00 uM): 0.072 log 2 fold change; Dose.FC.LYZ.S (ISC-enriched organoids [2]; Dose 10.00 uM): −0.202 log 2 fold change; Dose.FC.CTG (ISC-enriched organoids [3]; Dose 0.08 uM): 0.184 log 2 fold change; Dose.FC.CTG (ISC-enriched organoids [3]; Dose 0.40 uM): 0.209 log 2 fold change; Dose.FC.CTG (ISC-enriched organoids [3]; Dose 2.00 uM): 0.137 log 2 fold change; Dose.FC.CTG (ISC-enriched organoids [3]; Dose 10.00 uM): −0.169 log 2 fold change
CC(C)C[C@H](NC(=O)CNC(=O)c1cc(Cl)ccc1Cl)B(O)O [MLN2238]	−1.766	−1.837	−1.787	−2.223	−2.478	−2.317	−2.280	−2.394	−1.588	−1.620	−1.733	−1.739	−3.952	−2.637	−2.944	−4.205	−2.218	−0.972	−1.669	−1.891	
O=C(O)c1ccc(Nc2ncc3c(n2)-c2ccc(Cl)cc2C(c2c(F)cccc2F)=NC3)cc1 [MLN8054]	0.618	0.061	−0.713	−0.870	0.274	1.081	−0.562	−1.274	0.241	0.554	−0.486	−0.964	0.063	0.033	−1.111	−1.191	0.080	0.035	−0.959	−1.480	
